According to PubChem BioAssay (NCI):
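Compound exposure: 48 hours, 5 concentrations, 96-well plates. At the TGI there is no net growth.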

Columns and labels:
Experiment in all cases: DTP human tumour cell line panel, 48 h
HCT-116 colon = tested on: HCT-116 colon
MOLT-4 leukemia = tested on: MOLT-4 leukemia
SN12C renal = tested on: SN12C renal
HOP-92 NSCLC = tested on: HOP-92 NSCLC
T-47D breast = tested on: T-47D breast
EKVX NSCLC = tested on: EKVX NSCLC
SF-295 CNS = tested on: SF-295 CNS
UACC-62 melanoma = tested on: UACC-62 melanoma
SNB-75 CNS = tested on: SNB-75 CNS
SNB-19 CNS = tested on: SNB-19 CNS
OVCAR-8 ovarian = tested on: OVCAR-8 ovarian
SF-539 CNS = tested on: SF-539 CNS
MCF7 breast = tested on: MCF7 breast
SK-MEL-2 melanoma = tested on: SK-MEL-2 melanoma
RXF 393 renal = tested on: RXF 393 renal
COLO 205 colon = tested on: COLO 205 colon
A549 NSCLC = tested on: A549 NSCLC

SMILES | TGI (HCT-116 colon) [µM] | TGI (MOLT-4 leukemia) [µM] | TGI (SN12C renal) [µM] | TGI (HOP-92 NSCLC) [µM] | TGI (T-47D breast) [µM] | TGI (EKVX NSCLC) [µM] | TGI (SF-295 CNS) [µM] | TGI (UACC-62 melanoma) [µM] | TGI (SNB-75 CNS) [µM] | TGI (SNB-19 CNS) [µM] | TGI (OVCAR-8 ovarian) [µM] | TGI (SF-539 CNS) [µM] | TGI (MCF7 breast) [µM] | TGI (SK-MEL-2 melanoma) [µM] | TGI (RXF 393 renal) [µM] | TGI (COLO 205 colon) [µM] | TGI (A549 NSCLC) [µM]
O=c1oc2ccccc2c(O)c1Cc1ccccc1Cc1c(O)c2ccccc2oc1=O | > 100 | > 100 | > 100 | > 100 | > 100 | > 100 | > 100 | > 100 | > 100 | > 100 | > 100 | > 100 | > 100 | > 100 | > 100 | > 100 | > 100
COc1c(OC)c(OC)c2c(=O)c(OC)c(-c3ccc4c(c3)OCO4)oc2c1OC | > 100 | > 100 | > 100 | > 100 | > 100 | > 100 | > 100 | > 100 | > 100 | > 100 | > 100 | > 100 | > 100 | > 100 | > 100 | > 100 | > 100
CCCCCCCCCCCCCC/C(C(=O)O)=C(\C)C(=O)O | > 100 | > 100 | > 100 | > 100 | > 100 | > 100 | > 100 | > 100 | > 100 | > 100 | > 100 | > 100 | > 100 | > 100 | > 100 | > 100 | > 100
CCOC1Oc2ccccc2-c2nc(N)ncc21 (stereo unspecified) | > 100 | > 100 | > 100 | > 100 | > 100 | > 100 | > 100 | > 100 | > 100 | > 100 | > 100 | > 100 | > 100 | > 100 | > 100 | > 100 | > 100
c1cc2nnc1SCCSCCCSCCS2 | > 100 | > 100 | > 100 | > 100 | > 100 | > 100 | > 100 | > 100 | 41.2 | > 100 | > 100 | 58.2 | > 100 | > 100 | > 100 | > 100 | > 100
CNC(=O)OCC1=C(COC(=O)NC)CN(c2ccc(OC)cc2)C1 | > 100 | > 100 | > 100 | > 100 | > 100 | > 100 | > 100 | > 100 | > 100 | > 100 | > 100 | > 100 | > 100 | > 100 | > 100 | > 100 | > 100
COc1ccccc1CC1(O)OC(=O)c2ccccc21 (stereo unspecified) | > 100 | > 100 | > 100 | > 100 | > 100 | > 100 | > 100 | > 100 | > 100 | > 100 | > 100 | > 100 | > 100 | > 100 | > 100 | > 100 | > 100
N#CC(C#N)[C@@H]1CCC=C(Sc2ccccc2)[C@H]1Sc1ccccc1 | 8.4 | > 23.7 | 12.5 | 13.7 | 7.71 | 15.4 | 19.9 | 13.9 | 17.9 | 29 | 9.37 | 4.6 | 14.1 | 12.2 | 4.84 | 4.86 | 12.7
Oc1c(O)c(Cc2ccccc2)c(Cc2ccccc2)c(Cc2ccccc2)c1Cc1ccccc1 | > 10 | > 10 | > 10 | > 10 | > 10 | > 10 | > 10 | > 10 | > 10 | > 10 | > 10 | > 10 | > 10 | > 10 | > 10 | > 10 | > 10
Nc1nc(Cl)cc(NCC2(CO)CC=CC2)n1 | > 100 | > 100 | > 100 | > 100 | > 100 | > 100 | > 100 | > 100 | > 100 | > 100 | > 100 | > 100 | > 100 | > 100 | > 100 | > 100 | > 100
NC(=S)NN=C1Cc2ccccc2C1 | > 100 | > 100 | > 100 | > 100 | > 100 | > 100 | > 100 | > 100 | > 100 | > 100 | > 100 | > 100 | > 100 | > 100 | > 100 | > 100 | > 100
O=C(O)c1ccc(C2=Nc3cccc4cccc(c34)N2)cc1 | > 100 | > 100 | > 100 | > 100 | > 100 | > 100 | > 100 | > 100 | > 100 | > 100 | > 100 | > 100 | > 100 | > 100 | > 100 | > 100 | > 100
CC(C)C(=O)/C=C/c1ccc(Cl)cc1Cl | 10 | 96.4 | 23 | 30.8 | 25.7 | 31 | 30.9 | 25.7 | 27.7 | 29.3 | 22.8 | 34 | 14.2 | 27.6 | 22.2 | 32.7 | 30.4
